How the values were obtained:
[1] = test system: acute daunorubicin toxicity; settings: Herman et al, Res. Commun. Chem. Pathol. Pharmacol., 1985, 48, 39; cited from earlier work
[2] = test system: doxorubicin-induced cardiotoxicity; assay: Protective activity against doxorubicin-induced cardiotoxicity: cardiac output, heart rate, survival, congestive heart failure at 8 weeks; assay type: in vivo, Sprague Dawley rats; settings: for Survival: survivors/animals; for Incidence of CHF (congestive heart failure): over 8 weeks
Method: (§1) Mature male Sprague Dawley rats, 13-14 weeks old, weighing 400-500 gm were used. The animals were caged in groups of three and were kept in a constant environment. They were fed 41-B cubed diet and water ad libitum. The animal house was maintained in an alternating 12-hour wake-sleep cycle.
(§2) The cardioprotective activity of (±) trans-1,2-bis(3,5-dioxopiperazin-1-yl)cyclobutane (hereinafter referred to as the compound) was studied in the rats. […] The suspension was prepared shortly before use and was administered at a constant injection volume of 1 ml per 100 gm body weight. Doxorubicin hydrochloride (hereafter referred to as doxorubicin) (Farmitalia, Milan, Italy) was dissolved in sterile water (2 mg/ml) before injection.
(§3) A group of 6 animals received a combined treatment of the compound and doxorubicin. The compound was administered to animals as a single intraperitoneal (i.p.) injection into the lower right quadrant of the abdomen to avoid damage to vital organs. An hour after the administration of the compound, the animals received a single intravenous (i.v.) injection of doxorubicin (4 mg/kg), via the femoral vein. A group of 10 animals received an i.p. injection of saline (1 ml/100 gm) followed by an i.v. injection of saline (0.2 ml/100 gm) one hour later. These rats acted as control animals. Nine animals received an i.p. injection of saline one hour before an i.v. administration of doxorubicin (4 mg/kg). To minimise the effects of circadian timing, doxorubicin administration was carried out between 13.30 hours and 15.30 hours. During intravenous drug administration and for subsequent cardiac output measurements, animals were anaesthetised with choral hydrate (300 mg/kg).
The protective activity of the compound against doxorubicin-induced cardiotoxicity in the rats was assessed at 8 weeks by measuring the cardiac output in animals receiving the treatment using an external counting technique wherein a radioactive tracer, technetium (^99m TcO4), was injected as a bolus into the femoral vein of an anaesthetised animal. The activity time curve over the heart was recorded at 0.1 second intervals for 40 seconds, using an NaI detector connected to a multi-channel analyzer (ND-62, Nuclear Data). ECG and heart rate were determined concomitantly with the cardiac output measurement, using a human ECG monitor (Hewlett Packard 7830A) coupled to a scope memory (model VK-12-2, Seltek Instrument Ltd.) and a chart recorder.
Gross post mortem examinations were carried out on the animals that died during the study as well as those killed at the end of experiment (8 weeks).
(§4) In this study, statistical differences between group means were analysed using Student's t-test.

[3] = Solubility in saline / aqueous media; assay type: physicochemical; settings: administered as suspension in 0.5% CMC
[4] = test system: daunorubicin toxicity; doxorubicin toxicity; settings: Herman et al, Adv. Pharmacol. Chemother., 1982, 19, 249; cited from earlier work
[5] = Body weight (general acute toxicity) after i.p. pretreatment and doxorubicin; assay type: in vivo, Sprague Dawley rats
Method: as §1, §2, §3
The animals were weighed daily for up to three weeks after receiving treatment. The maximum reduction in body weight over this period was used as an index for the assessment of general acute toxicity. Animals were also weighed at 4 and 8 weeks to assess the general toxicity of the drug.
as §4

[6] = compound 100 mg/kg i.p. + doxorubicin 4 mg/kg i.v. after 1 hour, 8 weeks
[7] = compound 150 mg/kg i.p. + doxorubicin 4 mg/kg i.v. after 1 hour, 8 weeks
[8] = compound 200 mg/kg i.p. + doxorubicin 4 mg/kg i.v. after 1 hour, 8 weeks
[9] = compound 100, 150 or 200 mg/kg i.p. + doxorubicin 4 mg/kg
[10] = saline i.p. + doxorubicin 4 mg/kg i.v. after 1 hour
[11] = saline + doxorubicin 4 mg/kg, 8 weeks
[12] = saline i.p. + doxorubicin 4 mg/kg i.v. after 1 hour, 8 weeks

## CC(CN1CC(=O)NC(=O)C1)N1CC(=O)NC(=O)C1 (racemic) [the compound having R=CH3 and R'=R"=H (as the dl, d or l isomer)]
[1]
  protective effect against acute daunorubicin toxicity: give protection against the lethal effects of daunorubicin

## O=C1CN([C@@H]2CC[C@H]2N2CC(=O)NC(=O)C2)CC(=O)N1 (racemic) [Compound, (±) trans-1,2-bis(3,5-dioxopiperazin-1-yl)cyclobutane]
[2]; animals pretreated with the compound + doxorubicin 4 mg/kg
  change in heart rate: no change in heart rate
[2]; [6]
  RCO: mean relative cardiac output (treated / age-matched control): 0.80 ± 0.05
  RHR: mean relative heart rate (treated / age-matched control): 1.04 ± 0.03
  Survival: 6/6
[2]; compound 100 mg/kg i.p. + doxorubicin 4 mg/kg i.v. after 1 hour
  Incidence of CHF (congestive heart failure): 0/6
[2]; [7]
  RCO: mean relative cardiac output (treated / age-matched control): 0.86 ± 0.06
  RHR: mean relative heart rate (treated / age-matched control): 1.00 ± 0.04
  Survival: 6/6
[2]; compound 150 mg/kg i.p. + doxorubicin 4 mg/kg i.v. after 1 hour
  Incidence of CHF (congestive heart failure): 0/6
[2]; [8]
  RCO: mean relative cardiac output (treated / age-matched control): 0.84 ± 0.05
  RHR: mean relative heart rate (treated / age-matched control): 1.05 ± 0.03
  Survival: 6/6
[2]; compound 200 mg/kg i.p. + doxorubicin 4 mg/kg i.v. after 1 hour
  Incidence of CHF (congestive heart failure): 0/6
[2]; [9]
  activity against doxorubicin-induced cardiotoxicity: significant activity against doxorubicin-induced cardiotoxicity
  survival (in words): survived the course of study of 8 weeks
[2]; compound 100, 150 or 200 mg/kg i.p. + doxorubicin 4 mg/kg, 8 weeks
  signs of congestive failure: without showing any signs of congestive failure
[2]; compound 100, 150 or 200 mg/kg i.p. + doxorubicin 4 mg/kg, p<0.001
  impairment in cardiac output compared to saline and doxorubicin: significantly less impairment in cardiac output
[2]; dose range 100-200 mg/kg i.p. + doxorubicin 4 mg/kg
  dose dependence of the protective activity: no indication of dose dependent changes in the protective activity
[3]
  solubility in saline: inadequately soluble in saline

## CCC(CN1CC(=O)NC(=O)C1)N1CC(=O)NC(=O)C1 (racemic) [R=C2 H5 and R'=R"=H (dl)]
[1]
  protective effect against acute daunorubicin toxicity: either no protective activity or only minimal protective activity

## O=C1CN(CCN2CC(=O)NC(=O)C2)CC(=O)N1 [R=R'=R"=H]
[1]
  protective effect against acute daunorubicin toxicity: either no protective activity or only minimal protective activity

## O=C1CN(C2CCC2N2CC(=O)NC(=O)C2)CC(=O)N1 (stereo not drawn) [R+R'=--CH2 --CH2 -- and R"=H]
[1]
  protective effect against acute daunorubicin toxicity: either no protective activity or only minimal protective activity

## CC[C@H]([C@H](C)N1CC(=O)NC(=O)C1)N1CC(=O)NC(=O)C1 (relative stereo) [R: CH3, R'=C2 H5 and R"=H (dl-erythro)]
[1]
  protective effect against acute daunorubicin toxicity: either no protective activity or only minimal protective activity

## O=C1CN(CCN2CC(=O)N(CN3CCOCC3)C(=O)C2)CC(=O)N1CN1CCOCC1 [bimolane]
[1]
  protective effect against acute daunorubicin toxicity: give protection against the lethal effects of daunorubicin

## C[C@H]([C@H](C)N1CC(=O)NC(=O)C1)N1CC(=O)NC(=O)C1 [R=R'=CH3 and R"=H (meso)]
[1]
  protective effect against acute daunorubicin toxicity: either no protective activity or only minimal protective activity

## CC(CN1CC(=O)NC(=O)C1)N1CC(=O)NC(=O)C1 (racemic) [ICRF 159]
[4]
  effectiveness in reducing high dose daunorubicin toxicity relative to doxorubicin toxicity: consistently more effective in reducing high dose daunorubicin toxicity than doxorubicin toxicity

## O=C1CN(CCCN2CC(=O)NC(=O)C2)CC(=O)N1
[1]
  protective effect against acute daunorubicin toxicity: either no protective activity or only minimal protective activity

## CC(CN1CC(=O)N(C)C(=O)C1)N1CC(=O)N(C)C(=O)C1 (stereo not drawn) [R=R"=CH3and R'=H (l)]
[1]
  protective effect against acute daunorubicin toxicity: either no protective activity or only minimal protective activity

## CN1C(=O)CN(CCN2CC(=O)N(C)C(=O)C2)CC1=O [R=R'=H and R"=CH3]
[1]
  protective effect against acute daunorubicin toxicity: either no protective activity or only minimal protective activity

## COc1cccc2c1C(=O)c1c(O)c3c(c(O)c1C2=O)C[C@@](O)(C(=O)CO)C[C@@H]3O[C@H]1C[C@H](N)[C@H](O)[C@H](C)O1 [doxorubicin]
[5]; doxorubicin 4 mg/kg i.v., pretreated with saline i.p.
  reduction in body weight in the first three weeks after treatment: > 10%
[5]; [10]
  W2: mean body weight at 4 weeks after treatment: 381 ± 8
  W3: mean body weight at 8 weeks after treatment: 324 ± 27
  ΔW(%): maximum reduction in body weight in the first 3 weeks after treatment: 11.6 ± 0.7%
[5]; saline i.p. + doxorubicin 4 mg/kg i.v. after 1 hour, baseline
  W1: mean body weight of animals at the time of injection: 447 ± 11
[2]; [11]
  reduction in cardiac output: 60%
  reduction in heart rate: 35%
[2]; saline + doxorubicin 4 mg/kg, 9 animals
  death during study: one animal died just before 8 weeks
[2]; [12]
  RCO: mean relative cardiac output (treated / age-matched control): 0.41 ± 0.04
  RHR: mean relative heart rate (treated / age-matched control): 0.65 ± 0.19
  Survival: 8/9
[2]; [10]
  Incidence of CHF (congestive heart failure): 0/8

Reference: patent publication US5438057A, “Pharmaceutical compositions” (priority 1991, dated 1995)
